How the values were obtained:
Format in all cases: in vivo
Tetranychus urticae = Tetranychus urticae spray test, OP-resistant; conditions: spray on bean leaf discs, all stages, after 6 days
Method: Tetranychus urticae—Spray Test, OP-Resistant
(§1) To produce a suitable active ingredient formulation, 1 part by weight of active ingredient is dissolved with the specified parts by weight of solvent and made up to the desired concentration with water containing an emulsifier concentration of 1000 ppm. To produce further test concentrations, the formulation is diluted with emulsifier-containing water.
Discs of bean leaves (Phaseolus vulgaris) infested with all stages of the greenhouse red spider mite (Tetranychus urticae) are sprayed with an active ingredient formulation of the desired concentration.
After 6 days, the efficacy in % is determined. 100% means that all the spider mites have been killed; 0% means that no spider mites have been killed.

Musca domestica = Musca domestica test; conditions: adult houseflies, after 2 days
Method: Musca domestica Test Solvent: dimethyl sulfoxide To produce a suitable active ingredient formulation, 10 mg of active ingredient are mixed with 0.5 ml of dimethyl sulfoxide, and the concentrate is diluted with water to the desired concentration. Vessels containing a sponge treated with sugar solution and the active ingredient formulation of the desired concentration are populated with 10 adult houseflies (Musca domestica). After 2 days, the kill in % is determined. 100% means that all of the flies have been killed; 0% means that none of the flies have been killed.

Ctenocephalides felis [1] = assay: Ctenocephalides felis oral test; conditions: application rate 100 ppm in citrated cattle blood, adult cat fleas, after 2 days
Method: Ctenocephalides felis—Oral Test Solvent: dimethyl sulfoxide To produce a suitable active ingredient formulation, 10 mg of active ingredient are mixed with 0.5 ml of dimethyl sulfoxide. Dilution with citrated cattle blood gives the desired concentration. About 20 unfed adult cat fleas (Ctenocephalides felis) are placed into a chamber which is closed at the top and bottom with gauze. A metal cylinder whose bottom end is closed with parafilm is placed onto the chamber. The cylinder contains the blood/active ingredient formulation, which can be imbibed by the fleas through the parafilm membrane. After 2 days, the kill in % is determined. 100% means that all of the fleas have been killed; 0% means that none of the fleas have been killed.

Phaedon cochleariae = Phaedon cochleariae spray test; conditions: foliar, 168 h, application rate 100 g/ha, spray on Chinese cabbage leaf discs, larvae, after 7 days, read-out: efficacy in %
Method: Phaedon cochleariae—Spray Test
as §1
Discs of Chinese cabbage leaves (Brassica pekinensis) are sprayed with an active ingredient formulation of the desired concentration and, after drying, populated with larvae of the mustard beetle (Phaedon cochleariae).
After 7 days, the efficacy in % is determined. 100% means that all the beetle larvae have been killed; 0% means that no beetle larvae have been killed.

Myzus persicae [2] = assay: Myzus persicae oral test; conditions: 120 h, after 5 days, read-out: efficacy in %; for pest or weed control at 4 ppm: application rate 4 ppm; for pest or weed control at 20 ppm: application rate 20 ppm; for pest or weed control at 0.8 ppm: application rate 0.8 ppm
Method: Myzus persicae—Oral Test [table] To produce a suitable active ingredient formulation, 1 part by weight of active ingredient is dissolved with the stated parts by weight of solvent and made up to the desired concentration with water. 50 μl of the active ingredient formulationare transferred into microtitre plates and made up to a final volume of 200 μl with 150 μl of IPL41 insect medium (33% +15% sugar). Subsequently, the plates are sealed with parafilm, which a mixed population of green peach aphids (Myzus persicae) within a second microtitre plate is able to puncture and imbibe the solution. After 5 days, the efficacy in % is determined. 100% means that all the aphids have been killed; 0% means that no aphids have been killed.

Lucilia cuprina = Lucilia cuprina test; conditions: application rate 100 ppm, L1 larvae, after 2 days
Method: Lucilia cuprina Test Solvent: dimethyl sulfoxide To produce a suitable active ingredient formulation, 10 mg of active ingredient are mixed with 0.5 ml of dimethyl sulfoxide, and the concentrate is diluted with water to the desired concentration. About 20 L1 larvae of the Australian sheep blowfly (Lucilia cuprina) are transferred into a test vessel containing minced horsemeat and the active ingredient formulation of the desired concentration. After 2 days, the kill in % is determined. 100% means that all the larvae have been killed; 0% means that no larvae have been killed.

Ctenocephalides felis [3] = assay: Ctenocephalides felis in vitro contact test with adult cat fleas; conditions: application rate 5 μg/cm^2 (=500 g/ha), after 48 h
Method: Ctenocephalides felis—In Vitro Contact Tests with Adult Cat Fleas For the coating of the test tubes, 9 mg of active ingredient are first dissolved in 1 ml of acetone p.a. and then diluted to the desired concentration with acetone p.a. 250 μl of the solution are distributed homogeneously on the inner walls and the base of a 25 ml glass tube by turning and rocking on an orbital shaker (rocking rotation at 30 rpm for 2 h). With 900 ppm of active ingredient solution and internal surface area 44.7 cm^2, given homogeneous distribution, an area-based dose of 5 μg/cm^2 is achieved. After the solvent has evaporated off, the tubes are populated with 5-10 adult cat fleas (Ctenocephalides felis), sealed with a perforated plastic lid and incubated in a horizontal position at room temperature and ambient humidity. After 48 h, efficacy is determined. To this end, the tubes are stood upright and the fleas are knocked to the base of the tube. Fleas which remain motionless at the base or move in an uncoordinated manner are considered to be dead or moribund. […] 100% efficacy means that all the fleas were dead or moribund. 0% efficacy means that no fleas were harmed.

Myzus persicae [4] = assay: Myzus persicae spray test; conditions: foliar, 120 h, application rate 100 g/ha, spray on Chinese cabbage leaf discs, after 5 days, read-out: efficacy in %
Method: Myzus persicae—Spray Test [table] To produce a suitable active ingredient formulation, 1 part by weight of active ingredient is dissolved with the specified parts by weight of solvent and made up to the desired concentration with water containing an emulsifier concentration of 1000 ppm. To produce further test concentrations, the formulation is diluted with emulsifier-containing water. Discs of Chinese cabbage leaves (Brassica pekinensis) infested by all stages of the green peach aphid (Myzus persicae) are sprayed with an active ingredient formulation of the desired concentration. After 5 days, the efficacy in % is determined. 100% means that all the aphids have been killed; 0% means that no aphids have been killed.

Rhipicephalus sanguineus = Rhipicephalus sanguineus in vitro contact test with adult brown dog ticks; conditions: application rate 5 μg/cm^2 (=500 g/ha), after 48 h
Method: Rhipicephalus sanguineus—In Vitro Contact Test with Adult Brown Dog Ticks For the coating of the test tubes, 9 mg of active ingredient are first dissolved in 1 ml of acetone p.a. and then diluted to the desired concentration with acetone p.a. 250 µl of the solution are distributed homogeneously on the inner walls and the base of a 25 ml glass tube by turning and rocking on an orbital shaker (rocking rotation at 30 rpm for 2 h). With 900 ppm of active ingredient solution and internal surface area 44.7 cm^2, given homogeneous distribution, an area-based dose of 5 μg/cm^2 is achieved. After the solvent has evaporated off, the tubes are populated with 5-10 adult dog ticks (Rhipicephalus sanguineus), sealed with a perforated plastic lid and incubated in a horizontal position in darkness at room temperature and ambient humidity. After 48 h, efficacy is determined. To this end, the ticks are knocked to the base of the tube and incubated on a hotplate at 45-50° C. for a maximum 5 min. Ticks which remain motionless at the base or move in such an uncoordinated manner that they cannot attempt to escape from the heat by climbing upward are considered to be dead or moribund. […] 100% efficacy means that all the ticks were dead or moribund. 0% efficacy means that no ticks were harmed.

Spodoptera frugiperda = Spodoptera frugiperda spray test; conditions: application rate 100 g/ha, spray on maize leaf discs, caterpillars, after 7 days
Method: Spodoptera frugiperda—Spray Test [table] To produce a suitable active ingredient formulation, 1 part by weight of active ingredient is dissolved with the specified parts by weight of solvent and made up to the desired concentration with water containing an emulsifier concentration of 1000 ppm. To produce further test concentrations, the formulation is diluted with emulsifier-containing water. Leaf discs of maize (Zea mays) are sprayed with an active ingredient formulation of the desired concentration and, after drying, populated with caterpillars of the armyworm (Spodoptera frugiperda). After 7 days, the efficacy in % is determined. 100% means that all the caterpillars have been killed; 0% means that no caterpillar has been killed.

Compound	efficacy in % (Tetranychus urticae; application rate 100 g/ha) [%]	efficacy (kill in %) (Musca domestica; application rate 20 ppm) [%]	efficacy (kill in %) (Musca domestica; application rate 100 ppm) [%]	efficacy (kill in %) (Ctenocephalides felis [1]) [%]	pest or weed control at 100 g/ha (Phaedon cochleariae) [%]	pest or weed control at 4 ppm (Myzus persicae [2]) [%]	pest or weed control at 20 ppm (Myzus persicae [2]) [%]	efficacy (kill in %) (Lucilia cuprina) [%]	efficacy (fleas dead or moribund) (Ctenocephalides felis [3]) [%]	efficacy in % (Tetranychus urticae; application rate 20 g/ha) [%]	pest or weed control at 100 g/ha (Myzus persicae [4]) [%]	efficacy (ticks dead or moribund) (Rhipicephalus sanguineus) [%]	pest or weed control at 0.8 ppm (Myzus persicae [2]) [%]	efficacy in % (Spodoptera frugiperda) [%]
CCSc1c(-c2nc3cc(C(F)(F)F)cnc3n2C)nc(C2CC2)n1C [Example I-1, 2-[2-Cyclopropyl-5-(ethylsulfanyl)-1-methyl-1H-imidazol-4-yl]-3-methyl-6-(trifluoromethyl)-3H-imidazo[4,5-b]pyridine]	100	100	100	90	100	100	100	100	100	–	–	–	–	–
CCS(=O)(=O)c1c(-c2nc3cc(C(F)(F)F)cnc3n2C)nc(C2CC2)n1C [Example I-2, 2-[2-Cyclopropyl-5-(ethylsulfonyl)-1-methyl-1H-imidazol-4-yl]-3-methyl-6-(trifluoromethyl)-3H-imidazo[4,5-b]pyridine]	–	90	80	100	100	100	100	100	100	90	90	100	100	100
CCS(=O)(=O)c1c(-c2nc3cc(OC(F)(F)F)cnc3n2C)nc(C2CC2)n1C [Example I-6]	90	–	–	–	100	100	–	–	–	–	100	–	100	100
CCS(=O)(=O)c1c(-c2nc3cc([S+]([O-])C(F)(F)F)cnc3n2C)nc(C2CC2)n1C (stereo not shown) [Example I-7]	–	80	–	100	100	–	–	100	–	–	90	–	100	100
CCS(=O)(=O)c1c(-c2nc3cc(S(=O)(=O)C(F)(F)F)cnc3n2C)nc(C2CC2)n1C [Example I-8]	–	80	–	100	100	100	–	100	–	–	–	–	100	100
CCS(=O)(=O)c1c(-c2nc3cc(C(F)(F)F)ncc3n2C)nc(C2CC2)n1C [Example I-9]	–	–	–	–	100	100	–	–	–	–	–	–	100	–
CCn1c(C2CC2)nc(-c2nc3cc(C(F)(F)F)ncc3n2C)c1S(=O)(=O)CC [Example I-10]	–	–	–	–	100	100	–	–	–	–	–	–	100	83
CCS(=O)(=O)c1c(-c2nc3cc(C(F)(F)F)ncc3n2C)nc(C2CC2)n1C(C)C [Example I-11]	–	–	–	90	100	100	–	100	–	–	90	–	100	–
CCS(=O)(=O)c1c(-c2nc3cc(SC(F)(F)F)cnc3n2C)nc(C2CC2)n1C [Example I-12]	–	–	–	–	100	100	–	–	–	–	100	–	100	83
CCS(=O)(=O)c1c(-c2nc3cc(C(F)(F)F)ncc3n2C)nc(C2CCCCC2)n1C [Example I-13, 2-[2-Cyclohexyl-5-(ethylsulfonyl)-1-methyl-1H-imidazol-4-yl]-3-methyl-6-(trifluoromethyl)-3H-imidazo[4,5-c]pyridine]	–	–	–	–	–	100	–	–	–	–	–	–	–	–
CCS(=O)(=O)c1c(-c2nc3cc(C(F)(F)F)ncc3n2C)nc([C@H]2CC[C@@H](C(F)(F)F)CC2)n1C [Example I-15]	–	–	–	–	100	100	–	–	–	–	90	–	90	–
CCS(=O)(=O)c1c(-c2nc3cc(C(F)(F)F)ncc3n2C)nc([C@H]2CC[C@@H](C)CC2)n1C [Example I-16]	90	–	–	–	–	90	–	–	–	–	90	–	90	–
CCS(=O)(=O)c1c(-c2nc3cc(C(F)(F)F)nnc3n2C)nc(C2CC2)n1C [Example I-17]	–	–	–	–	100	100	–	–	–	–	90	–	100	–

Source: US11058115B2, “Heterocycle derivatives as pesticides” (Bayer Aktiengesellschaft, priority 2017, dated 2021)
